# Molecular target: Muscarinic acetylcholine receptor M2 (Sus scrofa) (UniProt P06199)
# Assay: Binding of [3H]N-methylscopolamine at porcine heart Muscarinic acetylcholine receptor M2 and negative log of the equilibrium dissociation constant was reported
# Chain of Muscarinic acetylcholine receptor M2 (Sus scrofa) (P06199 whole entry, looked up): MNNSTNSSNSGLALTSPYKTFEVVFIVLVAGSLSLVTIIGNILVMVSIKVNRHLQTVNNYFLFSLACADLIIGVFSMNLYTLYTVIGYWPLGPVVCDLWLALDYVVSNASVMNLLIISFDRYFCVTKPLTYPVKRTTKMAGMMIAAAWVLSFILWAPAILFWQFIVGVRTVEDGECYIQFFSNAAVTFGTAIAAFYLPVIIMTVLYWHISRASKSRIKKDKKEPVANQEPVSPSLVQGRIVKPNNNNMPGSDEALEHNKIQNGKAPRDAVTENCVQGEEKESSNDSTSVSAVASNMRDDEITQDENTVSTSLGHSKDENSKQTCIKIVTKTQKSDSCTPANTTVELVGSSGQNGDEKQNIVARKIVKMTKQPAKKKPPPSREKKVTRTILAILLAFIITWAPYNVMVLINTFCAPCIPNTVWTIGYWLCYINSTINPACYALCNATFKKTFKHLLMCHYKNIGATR
row,SMILES,pKA
1,Cc1ccc2c(c1)C(=O)N(CC(C)(C)C[N+](C)(C)CCCCCC[N+](C)(C)CC(C)(C)CN1C(=O)c3ccc(C)cc3C1=O)C2=O,7.21
2,Cc1ccc2c(c1)C(=O)N(CCC[N+](C)(C)CCCCCC[N+](C)(C)CC(C)(C)CN1C(=O)c3ccc(C)cc3C1=O)C2=O,7.41
3,Cc1ccc2c(c1)C(=O)N(CCC[N+](C)(C)CCCCCC[N+](C)(C)CC(C)(C)CN1C(=O)c3ccccc3C1=O)C2=O,7.2
4,Cc1ccc2c(c1)C(=O)N(CCC[N+](C)(C)CCCCCC[N+](C)(C)CCCN1C(=O)c3ccccc3C1=O)C2=O,6.89
5,Cc1ccc2c(c1)C(=O)N(CC(C)(C)C[N+](C)(C)CCCCCC[N+](C)(C)CCCN1C(=O)c3ccccc3C1=O)C2=O,7.26
6,Cc1ccc2c(c1)C(=O)N(CCC[N+](C)(C)CCCCCC[N+](C)(C)CCCN1C(=O)c3ccc(C)cc3C1=O)C2=O,7.08
7,CC(C)(CN1C(=O)c2ccccc2C1=O)C[N+](C)(C)CCCCCC[N+](C)(C)CC(C)(C)CN1C(=O)c2ccccc2C1=O,7.08
8,CC(C)(CN1C(=O)c2ccccc2C1=O)C[N+](C)(C)CCCCCC[N+](C)(C)CCCN1C(=O)c2ccccc2C1=O,6.9
9,C[N+](C)(CCCCCC[N+](C)(C)CCCN1C(=O)c2ccccc2C1=O)CCCN1C(=O)c2ccccc2C1=O,6.53
